Experimental data as given in the NIST ThermoML archive (doi:10.1016/j.jct.2018.02.013).

Key:
[1] = molar heat capacity at constant pressure; details: 101.33 kPa, Liquid, Small sample (50 mg) DSC
[2] = 101.33 kPa, Liquid; for thermal conductivity: transient hot wire; for mass density: Vibrating tube method; for viscosity: Cone and plate viscometry; for electrical conductivity: Direct current cell with electrodes

CCCCCC(=O)[O-].CCCCCCCCCCCCCC[P+](CCCCCC)(CCCCCC)CCCCCC [trihexyl(tetradecyl)phosphonium hexanoate]
Details	electrical conductivity [S/m]	mass density [kg/m3]	molar heat capacity at constant pressure [J/K/mol]	thermal conductivity [W/m/K]	viscosity [mPa·s]
[1], 293.15 K	–	–	1133.3	–	–
[1], 298.15 K	–	–	1141.7	–	–
[1], 303.15 K	–	–	1149.5	–	–
[1], 308.15 K	–	–	1156.7	–	–
[1], 313.15 K	–	–	1163.9	–	–
[1], 318.15 K	–	–	1169.3	–	–
[1], 323.15 K	–	–	1176.4	–	–
[1], 328.15 K	–	–	1182.4	–	–
[1], 333.15 K	–	–	1189	–	–
[1], 338.15 K	–	–	1196.8	–	–
[1], 343.15 K	–	–	1204	–	–
[1], 348.15 K	–	–	1211.2	–	–
[1], 353.15 K	–	–	1219	–	–
[1], 358.15 K	–	–	1227.4	–	–
[1], 363.15 K	–	–	1235.2	–	–
[2], 278.22 K	–	–	–	0.1591	–
[2], 287.73 K	–	–	–	0.1574	–
[2], 293.15 K	–	888.5	–	–	–
[2], 293.2 K	–	–	–	–	435.1
[2], 298.15 K	–	885.5	–	–	–
[2], 298.2 K	–	–	–	–	343.1
[2], 298.98 K	–	–	–	0.156	–
[2], 299.6 K	0.0033	–	–	–	–
[2], 303.15 K	–	882.3	–	–	–
[2], 303.2 K	–	–	–	–	260.7
[2], 303.8 K	0.00454	–	–	–	–
[2], 307.3 K	–	–	–	0.1547	–
[2], 308.1 K	0.00563	–	–	–	–
[2], 308.2 K	–	–	–	–	200
[2], 313.15 K	–	876	–	–	–
[2], 313.2 K	–	–	–	–	155.8
[2], 313.9 K	0.00765	–	–	–	–
[2], 318.15 K	–	–	–	0.1533	–
[2], 318.2 K	–	–	–	–	123.4
[2], 318.4 K	0.00943	–	–	–	–
[2], 323.15 K	–	869.7	–	–	–
[2], 323.2 K	–	–	–	–	99.18
[2], 323.6 K	0.0118	–	–	–	–
[2], 328 K	0.0144	–	–	–	–
[2], 328.2 K	–	–	–	–	80.79
[2], 329.17 K	–	–	–	0.151	–
[2], 333.15 K	–	863.6	–	–	–
[2], 333.2 K	–	–	–	–	66.6
[2], 333.6 K	0.018	–	–	–	–
[2], 336.96 K	–	–	–	0.15	–
[2], 338.2 K	–	–	–	–	55.39
[2], 338.9 K	0.0223	–	–	–	–
[2], 343 K	0.026	–	–	–	–
[2], 343.15 K	–	857.5	–	–	–
[2], 343.2 K	–	–	–	–	46.46
[2], 347.73 K	–	–	–	0.1497	–
[2], 348.2 K	–	–	–	–	39.52
[2], 349.3 K	0.0325	–	–	–	–
[2], 353.15 K	–	851.5	–	–	–
[2], 353.2 K	–	–	–	–	33.7
[2], 357.74 K	–	–	–	0.1476	–
[2], 358.2 K	–	–	–	–	28.97
[2], 363.15 K	–	845.4	–	–	–
[2], 363.2 K	–	–	–	–	25.05
[2], 368.2 K	–	–	–	–	21.82

CCCCCCCC(=O)[O-].CCCCCCCCCCCCCC[P+](CCCCCC)(CCCCCC)CCCCCC [trihexyl(tetradecyl)phosphonium octanoate]
Details	electrical conductivity [S/m]	mass density [kg/m3]	molar heat capacity at constant pressure [J/K/mol]	thermal conductivity [W/m/K]	viscosity [mPa·s]
[1], 293.15 K	–	–	1138.1	–	–
[1], 298.15 K	–	–	1150.7	–	–
[1], 303.15 K	–	–	1160.7	–	–
[1], 308.15 K	–	–	1170.1	–	–
[1], 313.15 K	–	–	1178.9	–	–
[1], 318.15 K	–	–	1185.8	–	–
[1], 323.15 K	–	–	1192.7	–	–
[1], 328.15 K	–	–	1199.6	–	–
[1], 333.15 K	–	–	1206.5	–	–
[1], 338.15 K	–	–	1213.4	–	–
[1], 343.15 K	–	–	1220.9	–	–
[1], 348.15 K	–	–	1228.4	–	–
[1], 353.15 K	–	–	1235.3	–	–
[1], 358.15 K	–	–	1242.2	–	–
[1], 363.15 K	–	–	1247.2	–	–
[2], 278.28 K	–	–	–	0.1611	–
[2], 288.24 K	–	–	–	0.1601	–
[2], 293.15 K	–	884.5	–	–	–
[2], 293.2 K	–	–	–	–	513.6
[2], 297.87 K	–	–	–	0.1581	–
[2], 298.15 K	–	881.4	–	–	–
[2], 298.2 K	–	–	–	–	400.2
[2], 300.6 K	0.00251	–	–	–	–
[2], 303.15 K	–	878.4	–	–	–
[2], 303.2 K	–	–	–	–	301.2
[2], 303.6 K	0.00345	–	–	–	–
[2], 307.71 K	–	–	–	0.1567	–
[2], 308 K	0.00428	–	–	–	–
[2], 308.2 K	–	–	–	–	230.8
[2], 313.15 K	–	872.1	–	–	–
[2], 313.2 K	–	–	–	–	179.3
[2], 313.4 K	0.0057	–	–	–	–
[2], 317.92 K	–	–	–	0.1561	–
[2], 318.2 K	–	–	–	–	141.2
[2], 319 K	0.0073	–	–	–	–
[2], 323.15 K	–	865.9	–	–	–
[2], 323.2 K	–	–	–	–	113
[2], 323.8 K	0.0091	–	–	–	–
[2], 328.17 K	–	–	–	0.1547	–
[2], 328.2 K	–	–	–	–	91.42
[2], 328.4 K	0.011	–	–	–	–
[2], 333.15 K	–	859.8	–	–	–
[2], 333.2 K	0.0137	–	–	–	75.22
[2], 337.66 K	–	–	–	0.1527	–
[2], 338.2 K	–	–	–	–	62.47
[2], 338.6 K	0.017	–	–	–	–
[2], 343 K	0.0198	–	–	–	–
[2], 343.15 K	–	853.7	–	–	–
[2], 343.2 K	–	–	–	–	52.65
[2], 347.76 K	–	–	–	0.1507	–
[2], 348.2 K	–	–	–	–	44.4
[2], 349.5 K	0.0247	–	–	–	–
[2], 353.15 K	–	847.6	–	–	–
[2], 353.2 K	–	–	–	–	37.98
[2], 358.08 K	–	–	–	0.1497	–
[2], 358.2 K	–	–	–	–	32.78
[2], 363.15 K	–	841.6	–	–	–
[2], 363.2 K	–	–	–	–	28.12
[2], 368.2 K	–	–	–	–	24.48
